The values below come from patent US20160045528A1, “COMBINATION THERAPY FOR TREATING A PARAMYXOVIRUS” (priority 2014, published 2016).

In the assay the test system is RSV subgenomic replicon 395 HeLa. Briefly: RSV replicon assay (Renilla luciferase, 395 HeLa replicon cells). The class given is cell-based. The note with it: human respiratory syncytial virus, 168 h. From the text: The RSV subgenomic replicon 395 HeLa was licensed from Apath (Brooklyn, N.Y.) and was originally developed by Dr. Mark Meeples of Center for Vaccines & Immunity, the Research Institute at Nationwide Children's Hospital in Columbus, Ohio. To generate subgenomic RSV replicon, three glycoprotein genes, those for SH, G, and F, from a full-length recombinant GFP-expressing (rg) RSV antigenomic cDNA were deleted. In their place, a blasticidin S deaminase (bsd) gene was inserted. Through multiple steps, the RSV replicon was established in HeLa cells. The 395 HeLa cells were cultured in Dulbecco's Modified Eagle Medium (DMEM) containing 4500 mg/L D-glucose, L-glutamine, and 110 mg/L sodium pyruvate (Invitrogen, Cat. #11995-040). The medium was further supplemented with 10% (v/v) fetal bovine serum (FBS) (Mediatech, Cat. #35-010-CV), 1% (v/v) penicillin/streptomycin (Mediatech, Cat. #30-002-CI), and 10 μg/mL of Blasticidin (BSD) (Invivogen, Cat. code ant-b1-1). Cells were maintained at 37° C. in a humidified 5% CO2 atmosphere.
Determination of 50% inhibitory concentration […], 90% inhibitory concentration (C90) and 50% cytotoxic concentration […] in RSV replicon cells were performed by the following procedure. […]
The Renilla Luciferase Assay System (Promega, Cat. #E2820) was used to measure anti-RSV replicon activity. […] Luminescence was recorded using a Perkin Elmer multilabel counter Victor3V.

A word on the EC50: it is the concentration needed to bring the measured effect to its halfway point. For `[2H]C([2H])(OC(=O)C(C)C)[C@@]1(CCl)O[C@@H](n2ccc(N)nc2=O)[C@H](F)[C@@H]1OC(=O)C(C)C` [Compound 31], the 50% effective concentration (EC50) was less than 1000 nM.
